Test results: patent EP0065513B1, “ANTIMYCOTIC SYNERGISTIC PHARMACEUTICAL COMPOSITIONS AND PROCESS FOR THE PREPARATION THEREOF” (CHINOIN Gyogyszer és Vegyészeti Termékek Gyára RT., priority 1980, dated 1982)

Experiments:
Trichomonas vaginalis = experiment: In vitro growth inhibition test in liquid nutrient medium; assay type: cell-based
Procedure: (§1) Candida albicans and Trichomonas vaginalis strains are cultured in a liquid nutrient medium. Incubation is carried out at 37°C for 48 hours. Each nutrient medium (10 ml) is inoculated with 1000 germs per ml. The number of germs is determined in a Burker chamber. Dilution series are prepared from the stock inoculum by using a physiological sodium chloride solution. To the mixture of the nutrient medium and 0.5 ml a physiological sodium chloride solution 2-methyl-1,4-naphthoquinone, nystatin and mixtures thereof are added.
(§2) The minimal inhibitory concentration of nystatin is determined in the manner disclosed above.
(§3) 1.25 mg/10 ml of 2-methyl-1,4-naphthoquinone is added to an amount of nystatin being the one fiftieth (1/50) part of the minimal inhibitory concentration. Complete inhibition of the growth of Candida albicans and Trichomonas vaginalis was observed.

Candida albicans = experiment: as above; assay type: cell-based
Procedure: as §1, §2, §3

[1] = test system: vulvovaginitis candidomycetica; experiment: In vivo test: treatment of patients with suppositories; settings: patients with vulvovaginitis candidomycetica treated with suppositories; number of patients 35
Procedure: Patients suffering of vulvovaginitis candidomycetica are treated with suppositories according to Example 1. As control suppositories containing no 2-methyl-1,4-naphthoquinone-sodium sulfite adduct but nystatin only are used. Number of patients 35.

[2] = concentration smaller than 5 mg/10 ml
[3] = liquid nutrient medium 10 ml, 1000 germs per ml, 37°C, 48 hours

SMILES	activity at a smaller concentration than the minimal inhibitory concentration (Trichomonas vaginalis; [2])	minimal inhibitory concentration (Trichomonas vaginalis; [3])	activity at a smaller concentration than the minimal inhibitory concentration (Candida albicans; [2])	minimal inhibitory concentration (Candida albicans; [3])	Recovery, in % of the cases [1]
CC1=CC(=O)c2ccccc2C1=O [2-methyl-1,4-naphthoquinone]	completely inactive	5 mg/10 ml	completely inactive	5 mg/10 ml	
C[C@@H]1[C@H](O)[C@@H](C)/C=C/C=C/CC/C=C/C=C/C=C/C=C/C(O[C@H]2O[C@H](C)[C@@H](O)[C@H](N)[C@@H]2O)CC2O[C@](O)(CC(O)C(O)CCC(O)CC(O)CC(O)CC(=O)O[C@H]1C)CC(O)C2C(=O)O (some centres unmarked) [Nystatin]					66%
